“And” between values parts separate entries of the source, which are not always exact repeats. Equal values may be shown once.
Assays:
[1] = two patients with VKORC1 Asp36Tyr; Geisen 2005b; cited from earlier work
[2] = Warfarin dose requirements in 99 unselected warfarin-treated subjects at stable INR, by VKORC1 Asp36Tyr (D36Y) carrier status; type: in vivo, human
[3] = Effect of combined CYP2C9, VKORC1 and CALU genotypes on warfarin dose requirements (FIG. 2); type: in vivo, human; settings: dotted line of FIG. 2
Description: The combined genotypes are ordered according to the model proposed by Wallin R, et al., 2001, assuming the reduced VKORC1 activity associated with the VKORC1 6853G→C polymorphism and the reduced activity of CALU associated with the CALU 73G→A (R4Q) polymorphism and assigning equal weight to CYP2C9 and VKORC1 genotypes. […] CYP2C9=cytochrome P450 2C9; VKORC1=vitamin K epoxide reductase component 1; CALU=calumenin;

[4] = Warfarin dose requirements in selected warfarin resistant and warfarin sensitive patients at stable therapeutic INR; type: in vivo, human
Description: Aliquots of fresh whole blood were drawn for INR determination and DNA extraction.
Data Analyses—Statistical analyses were performed using SPSS software (version 11.0, SPSS Inc.) and GB-STAT software package (version 8.0, Dynamic Microsystems Inc.). Relevant statistical applications are mentioned in the text, odds ratios (OR) are presented with 95% confidence limits, p value of <0.05 indicates statistical significance.

[5] = CYP2C9*1 (wild type) allele; Higashi 2002, Sconce 2005; cited from earlier work
[6] = 23 selected resistant and sensitive subjects

Structure (SMILES) | phenprocoumon requirement to maintain INR between 2.0 and 3.0 [1] | INR maintained under warfarin, range ([2]; 99 unselected warfarin-treated subjects) | INR maintained under warfarin ([2]; 99 unselected warfarin-treated subjects, stable INR) | warfarin dose requirements, range ([2]; carriers of VKORC1 Asp36Tyr (8/99), upper dose quartile) | warfarin dose requirements, range ([2]; non-carriers of Asp36Tyr (n=91)) | mean warfarin dose required ([2]; non-carriers of Asp36Tyr (n=91), mean±SD) | mean warfarin dose ([2]; whole unselected warfarin-treated group (N=99), stable INR) | median weight-normalized warfarin dose [3] | INR maintained under warfarin [4, 6] | INR maintained under warfarin, range [4, 6] | mean warfarin weekly dose ([4]; warfarin resistant group (N=15, subjects 1-15)) | mean warfarin weekly dose ([4]; warfarin sensitive group (N=8, subjects 16-23)) | warfarin doses associated with CYP2C9*1 variant [5]
CCC(c1ccccc1)c1c(O)c2ccccc2oc1=O (stereo not shown) [phenprocoumon] | 40-50 mg per week |  |  |  |  |  |  |  |  |  |  |  | 
CC(=O)CC(c1ccccc1)c1c(O)c2ccccc2oc1=O (stereo not shown) [warfarin] |  | 1.9-4.2 | 2.7±0.5 | 70-105 mg/week and > 70 mg/week | 8-70 mg/week | 42.7±7.5 mg/week | 39.4±7.8 mg/week | 4.8 mg/day | 2.7±0.5 | 1.9-4.2 | 112.8±29 mg/week and 112.8 mg/week | 10.5±2.32 mg/week and 10.5 mg/week | 28-39 mg/week
